Experimental data from paper PMC2931804 (Clinical cancer research : an official journal of the …, 2010).
Read-outs that look alike come from different tables or passages of the source.

[1] = DL2 600 mg twice daily × 3 + sLV5FU2, 1st cycle, n = 6
[2] = DL2 600 mg twice daily × 3 + sLV5FU2, Any cycle, n = 6
[3] = DL2 800 mg once daily × 3 + sLV5FU2, 1st cycle, n = 3
[4] = DL2 800 mg once daily × 3 + sLV5FU2, Any cycle, n = 3
[5] = DL3 800 mg twice daily × 3 + sLV5FU2, 1st cycle, n = 3
[6] = DL3 800 mg twice daily × 3 + sLV5FU2, Any cycle, n = 3

O=C(CCCCCCC(=O)Nc1ccccc1)NO [vorinostat, suberoylanilide hydroxamic acid]
3/1/0: Fatigue, treatment-related, patients (G2/G3/G4) [2]
1/2/0: Fatigue, treatment-related, patients (G2/G3/G4) [6]
0/0/1: Fever, treatment-related, patients (G2/G3/G4) [2] | Thrombocytopenia, treatment-related, patients (G2/G3/G4) [2] | ATE, treatment-related, patients (G2/G3/G4) [6]
2/1/1: Mucositis, treatment-related, patients (G2/G3/G4) [6]
1/0/0: Vomiting, treatment-related, patients (G2/G3/G4) [1] | Diarrhea, treatment-related, patients (G2/G3/G4) [2] | Vomiting, treatment-related, patients (G2/G3/G4) [2] | Anemia, treatment-related, patients (G2/G3/G4) [3] | Anorexia, treatment-related, patients (G2/G3/G4) [3] | Creatinine, treatment-related, patients (G2/G3/G4) [3] | Fatigue, treatment-related, patients (G2/G3/G4) [3] | Nausea, treatment-related, patients (G2/G3/G4) [3] | Thrombocytopenia, treatment-related, patients (G2/G3/G4) [3] | Anemia, treatment-related, patients (G2/G3/G4) [4] | Diarrhea, treatment-related, patients (G2/G3/G4) [4] | Thrombocytopenia, treatment-related, patients (G2/G3/G4) [4] | Anorexia, treatment-related, patients (G2/G3/G4) [5] | Chelitis, treatment-related, patients (G2/G3/G4) [5] | Diarrhea, treatment-related, patients (G2/G3/G4) [5] | Esophagitis, treatment-related, patients (G2/G3/G4) [5] | Esophagitis, treatment-related, patients (G2/G3/G4) [6]
2/0/0: Anorexia, treatment-related, patients (G2/G3/G4) [2] | Dehydration, treatment-related, patients (G2/G3/G4) [2] | Anorexia, treatment-related, patients (G2/G3/G4) [4] | Fatigue, treatment-related, patients (G2/G3/G4) [4] | Nausea, treatment-related, patients (G2/G3/G4) [4] | Dehydration, treatment-related, patients (G2/G3/G4) [5] | Anorexia, treatment-related, patients (G2/G3/G4) [6] | Chelitis, treatment-related, patients (G2/G3/G4) [6] | Dehydration, treatment-related, patients (G2/G3/G4) [6]
0/1/0: Thrombocytopenia, treatment-related, patients (G2/G3/G4) [1] | Headache, treatment-related, patients (G2/G3/G4) [2] | Diarrhea, treatment-related, patients (G2/G3/G4) [6]
0/0/0: Neutropenia, treatment-related, patients (G2/G3/G4) [1] | VTE, treatment-related, patients (G2/G3/G4) [1] | ATE, treatment-related, patients (G2/G3/G4) [2] | Chelitis, treatment-related, patients (G2/G3/G4) [2] | Esophagitis, treatment-related, patients (G2/G3/G4) [2] | Mucositis, treatment-related, patients (G2/G3/G4) [2] | Neutropenia, treatment-related, patients (G2/G3/G4) [2] | VTE, treatment-related, patients (G2/G3/G4) [2] | DVT/PE, treatment-related, patients (G2/G3/G4) [3] | Dehydration, treatment-related, patients (G2/G3/G4) [3] | Diarrhea, treatment-related, patients (G2/G3/G4) [3] | GI bleed, treatment-related, patients (G2/G3/G4) [3] | Hand and Foot, treatment-related, patients (G2/G3/G4) [3] | Infection, treatment-related, patients (G2/G3/G4) [3] | Mucositis, treatment-related, patients (G2/G3/G4) [3] | Neutropenia, treatment-related, patients (G2/G3/G4) [3] | Vomiting, treatment-related, patients (G2/G3/G4) [3] | Weight Loss, treatment-related, patients (G2/G3/G4) [3] | DVT/PE, treatment-related, patients (G2/G3/G4) [4] | Dehydration, treatment-related, patients (G2/G3/G4) [4] | GI bleed, treatment-related, patients (G2/G3/G4) [4] | Hand and Foot, treatment-related, patients (G2/G3/G4) [4] | Infection, treatment-related, patients (G2/G3/G4) [4] | Mucositis, treatment-related, patients (G2/G3/G4) [4] | Neutropenia, treatment-related, patients (G2/G3/G4) [4] | Vomiting, treatment-related, patients (G2/G3/G4) [4] | Weight Loss, treatment-related, patients (G2/G3/G4) [4] | ATE, treatment-related, patients (G2/G3/G4) [5] | Anemia, treatment-related, patients (G2/G3/G4) [5] | Fever, treatment-related, patients (G2/G3/G4) [5] | Headache, treatment-related, patients (G2/G3/G4) [5] | Nausea, treatment-related, patients (G2/G3/G4) [5] | Neutropenia, treatment-related, patients (G2/G3/G4) [5] | VTE, treatment-related, patients (G2/G3/G4) [5] | Vomiting, treatment-related, patients (G2/G3/G4) [5] | Fever, treatment-related, patients (G2/G3/G4) [6] | Headache, treatment-related, patients (G2/G3/G4) [6]
0/2/0: Anemia, treatment-related, patients (G2/G3/G4) [6]
1/1/0: Anemia, treatment-related, patients (G2/G3/G4) [2]
None and without any DLT: Patients with DLT (DL2 600 mg twice daily × 3 + sLV5FU2, six patients)
3/0/0: Nausea, treatment-related, patients (G2/G3/G4) [1] | Nausea, treatment-related, patients (G2/G3/G4) [2] | Thrombocytopenia, treatment-related, patients (G2/G3/G4) [5]
